Laboratory results from patent US20170275270A1, “BENZYL SUBSTITUTED INDAZOLES” (Bayer Pharma Aktiengesellschaft, priority 2014, published 2017).
Read-outs that look alike come from different tables or passages of the source.

What was measured:
[1] = target: T1, catalytic domain of human Bub1 (amino acids 704-1085) (Homo sapiens, UniProt O43683); assay: Bub1 kinase assay (TR-FRET); assay type: biochemical
T1 construct: catalytic domain of human Bub1 (amino acids 704-1085); His6 (N); made in house; host or cells: Hi5 insect cells
In short: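 TR-FRET read-out (Eu-anti-mouse IgG/anti-phosphoserine antibody to streptavidin-XL665 on biotinylated peptide) after EDTA stop and 1 h complex formation at 22° C. Kinase reaction ran 60 min at 22° C with 1:3.4 serial dilutions from 2 mM DMSO stocks. IC50 from 4-parameter logistic fit of normalized inhibition.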

Bub1 = Bub1 (Homo sapiens, UniProt O43683); assay: Formation-Assay: phosphorylation status of histone 2A by inhibition of kinase activity of Bub1; assay type: cell-based; details: Biological Assay 4.1: H2A Formation IC50, co-treatment with Nocodazole 1 μg/ml, 16 h
Method: Biological Assay 4.1: Formation-Assay
Cell-Based Mechanistic Assay: Changes of Phosphorylation Status of Histone 2A by Inhibition of Kinase Activity of Bub1
This assay determines the suppression of histone 2A phosphorylation by a Bub1 kinase inhibitor during co-treatment with Nocodazole. 25000 cells (cells were ordered from ATCC) were seeded in 96 well plate for 5 h at 37° C. Cells were treated with Nocodazole (1 μg/ml) and varying concentrations (between 3 nM and 10 μM) of test compounds for 16 h. Cells were fixed (20 min, Fixing solution R&D), washed three times with PBS and blocked with Odyssey blocking buffer before incubating with the primary antibody against phosphorylated H2A (5 μg/ml ABIN482721) overnight at 2-8° C. After washing, secondary IRDye-labeled antibody mix with cell stains was added for 1 h and washed again with PBS. Plates were scanned with LiCor Odyssey Infrared Imager CLx at 800 nm for P-H2A and at 700 nm for cell stains Draq5/Sapphire. The quotient of 800 nm and 700 nm for Nocodazole only treated cells was set as 100% and the quotient of 800 nm and 700 nm of untreated cells was set as 0%.
Histone H2A is an immediate intracellular substrate of Bub1 kinase. Determination of the phosphorylation status of Histone H2A provides a direct measure of the intracellular activity of Bub1 kinase.

HeLa = assay: Proliferation assay (HeLa cell line); details: Homo sapiens, 96 h, read-out: Biological Assay 2: Proliferation assay (HeLa cell line) median IC50;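 note: crystal violet staining of cell number, scaled between a plate stained before dosing (0%) and cells left untreated (100%), compounds tested at 0.001-10 µM, IC50 via 4-parameter fit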
[2] = system: HeLa human cervical tumor cells; assay: Proliferation assay (HeLa+Paclitaxel); details: read-out: Biological Assay 3: HeLa + Paclitaxel IC50, 3 nM paclitaxel, crystal violet;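 note: compounds at 0.001-10 µM added 4 h after paclitaxel, 92 h exposure, absorbance normalized to zero-point plate (0%) and untreated cells (100%), IC50 from 4-parameter fit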
[3] = Biological Assay 1: Bub1 kinase assay median IC50, 10 μM ATP
[4] = 10 μM ATP, read-out: Biological Assay 1: Bub1 kinase assay median IC50

Sequence of Bub1 (O43683 whole entry): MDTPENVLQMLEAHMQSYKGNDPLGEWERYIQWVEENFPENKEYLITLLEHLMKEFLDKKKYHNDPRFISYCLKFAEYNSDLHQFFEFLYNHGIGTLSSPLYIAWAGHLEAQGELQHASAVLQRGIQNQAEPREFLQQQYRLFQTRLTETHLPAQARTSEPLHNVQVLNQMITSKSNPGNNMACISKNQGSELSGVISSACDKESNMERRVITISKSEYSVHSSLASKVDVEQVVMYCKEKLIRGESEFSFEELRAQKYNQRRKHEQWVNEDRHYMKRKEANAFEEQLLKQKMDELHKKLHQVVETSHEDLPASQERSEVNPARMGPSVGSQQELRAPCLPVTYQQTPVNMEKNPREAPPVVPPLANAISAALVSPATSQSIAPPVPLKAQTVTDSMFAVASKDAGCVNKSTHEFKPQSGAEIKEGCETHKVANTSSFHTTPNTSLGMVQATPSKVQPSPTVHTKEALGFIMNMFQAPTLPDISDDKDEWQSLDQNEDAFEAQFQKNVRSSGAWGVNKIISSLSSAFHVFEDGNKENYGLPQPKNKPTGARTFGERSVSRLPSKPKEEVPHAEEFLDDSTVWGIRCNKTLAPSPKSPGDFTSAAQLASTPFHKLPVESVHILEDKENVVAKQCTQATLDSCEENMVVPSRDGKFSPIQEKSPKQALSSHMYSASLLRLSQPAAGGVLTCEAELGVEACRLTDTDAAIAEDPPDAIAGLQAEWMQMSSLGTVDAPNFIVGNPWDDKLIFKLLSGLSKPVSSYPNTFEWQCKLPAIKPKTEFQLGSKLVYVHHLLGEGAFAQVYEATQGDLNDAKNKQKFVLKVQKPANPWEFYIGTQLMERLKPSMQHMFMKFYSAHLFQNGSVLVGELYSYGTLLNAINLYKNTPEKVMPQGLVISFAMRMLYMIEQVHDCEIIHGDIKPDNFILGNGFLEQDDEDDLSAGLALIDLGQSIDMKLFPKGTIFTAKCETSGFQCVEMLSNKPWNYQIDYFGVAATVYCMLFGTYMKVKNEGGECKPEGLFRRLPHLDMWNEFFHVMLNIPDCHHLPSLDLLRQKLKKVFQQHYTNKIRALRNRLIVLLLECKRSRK
T1 sequence (O43683 704-1085): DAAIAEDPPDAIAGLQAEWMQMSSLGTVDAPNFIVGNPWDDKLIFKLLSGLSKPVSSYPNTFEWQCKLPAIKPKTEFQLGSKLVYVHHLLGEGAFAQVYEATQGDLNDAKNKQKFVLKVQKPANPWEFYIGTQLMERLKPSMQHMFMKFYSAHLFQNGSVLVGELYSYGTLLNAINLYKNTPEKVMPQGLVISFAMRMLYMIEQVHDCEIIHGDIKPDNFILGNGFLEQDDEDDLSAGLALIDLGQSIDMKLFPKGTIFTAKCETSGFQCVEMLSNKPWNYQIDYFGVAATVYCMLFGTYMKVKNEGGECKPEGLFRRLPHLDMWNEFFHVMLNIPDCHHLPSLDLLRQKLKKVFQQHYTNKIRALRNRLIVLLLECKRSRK

SMILES	IC50 [1, 3] [nM]	IC50 (Bub1) [nM]	IC50 (HeLa) [nM]	IC50 [1, 4] [nM]	IC50 [2] [nM]
CCOc1cc(F)c(Cn2nc(-c3ncc(CCS(C)(=O)=O)c(Nc4ccncc4)n3)c3ccccc32)c(F)c1 [Example 2-3-1, 2-[1-(4-ethoxy-2,6-difluorobenzyl)-1H-indazol-3-yl]-5-[2-(methylsulfonyl)ethyl]-N-(eparate-4-yl)pyrimidin-4-amine]	6.1	2300	3500	–	–
CCOc1cc(F)c(Cn2nc(-c3nc(C)cc(Nc4ccncc4C(N)=O)n3)c3ccccc32)c(F)c1 [Example 2-10-2, 4-({2-[1-(4-ethoxy-2,6-difluorobenzyl)-1H-indazol-3-yl]-6-methylpyrimidin-4-yl}amino)pyridine-3-carboxamide]	–	140	–	5.5	–
CCOc1cc(F)c(Cn2nc(-c3nc(CN4CCOCC4)cc(Nc4ncncc4C)n3)c3ccccc32)c(F)c1 [Example 2-12-38, 2-[1-(4-ethoxy-2,6-difluorobenzyl)-1H-indazol-3-yl]-N-(5-methylpyrimidin-4-yl)-6-(morpholin-4-ylmethyl)pyrimidin-4-amine]	3000	–	8800	–	110
COCCOc1cc(F)c(Cn2nc(-c3nc(CN4CCOCC4)cc(Nc4ccnnc4)n3)c3ccccc32)c(F)c1 [Example 2-12-39, N-[2-{1-[2,6-difluoro-4-(2-methoxyethoxy)benzyl]-1H-indazol-3-yl}-6-(morpholin-4-ylmethyl)pyrimidin-4-yl]pyridazin-4-amine]	26	–	> 10000	–	770
COCCOc1cc(F)c(Cn2nc(-c3nc(CN4CCOCC4)cc(Nc4ccncc4C)n3)c3ccccc32)c(F)c1 [Example 2-12-41, 2-{1-[2,6-difluoro-4-(2-methoxyethoxy)benzyl]-1H-indazol-3-yl}-N-(3-methylpyridin-4-yl)-6-(morpholin-4-ylmethyl)pyrimidin-4-amine]	8.8	–	3500	–	120
COCCOc1cc(F)c(Cn2nc(-c3nc(CN4CCOCC4)cc(Nc4ccncc4OC)n3)c3ccccc32)c(F)c1 [Example 2-12-42, 2-{1-[2,6-difluoro-4-(2-methoxyethoxy)benzyl]-1H-indazol-3-yl}-N-(3-methoxypyridin-4-yl)-6-(morpholin-4-ylmethyl)pyrimidin-4-amine]	16	–	3400	–	240
COCCOc1cc(F)c(Cn2nc(-c3nc(CN4CCOCC4)cc(Nc4ccncc4)n3)c3ccccc32)c(F)c1 [Example 2-12-43, 2-{1-[2,6-difluoro-4-(2-methoxyethoxy)benzyl]-1H-indazol-3-yl}-6-(morpholin-4-ylmethyl)-N-(pyridin-4-yl)pyrimidin-4-amine]	9.6	–	3600	–	250
CCOc1cc(F)c(Cn2nc(-c3nc(CN4CCOCC4)cc(Nc4cc(C)nc(C)n4)n3)c3ccccc32)c(F)c1 [Example 2-12-44, N-(2,6-dimethylpyrimidin-4-yl)-2-[1-(4-ethoxy-2,6-difluorobenzyl)-1H-indazol-3-yl]-6-(morpholin-4-ylmethyl)pyrimidin-4-amine]	320	–	9600	–	89
CCOc1cc(F)c(Cn2nc(-c3nc(CN4CCOCC4)cc(Nc4cc(O)ncn4)n3)c3ccccc32)c(F)c1 [Example 2-12-45, 6-({2-[1-(4-ethoxy-2,6-difluorobenzyl)-1H-indazol-3-yl]-6-(morpholin-4-ylmethyl)pyrimidin-4-yl}amino)pyrimidin-4-ol]	760	–	> 10000	–	380
CCOc1cc(F)c(Cn2nc(-c3nc4c(c(Nc5ccnc(NC(C)=O)c5)n3)CC(C)(C)CC4)c3ccccc32)c(F)c1 [Example 2-12-69, N-[4-({2-[1-(4-ethoxy-2,6-difluorobenzyl)-1H-indazol-3-yl]-6,6-dimethyl-5,6,7,8-tetrahydroquinazolin-4-yl}amino)pyridin-2-yl]acetamide]	8.8	–	8500	–	170
CCOc1cc(F)c(Cn2nc(-c3nc(C)cc(Nc4ccncc4OC(F)(F)F)n3)c3ccccc32)c(F)c1 [Example 2-12-79, 2-[1-(4-ethoxy-2,6-difluorobenzyl)-1H-indazol-3-yl]-6-methyl-N-[3-(trifluoromethoxy)pyr-idin-4-yl]pyrimidin-4-amine]	–	–	> 10000	5.6	1900
CCOc1cc(F)c(Cn2nc(-c3nc(Nc4cc(C)ncc4C)cc(C(F)(F)F)n3)c3ccccc32)c(F)c1 [Example 2-12-82, N-(2,5-dimethylpyridin-4-yl)-2-[1-(4-ethoxy-2,6-difluorobenzyl)-1H-indazol-3-yl]-6-(trifluoromethyl)pyr-imidin-4-amine]	–	30	–	> 20000	–
CCOc1cc(F)c(Cn2nc(-c3nc(Nc4ccncn4)cc(C4CCOCC4)n3)c3ccccc32)c(F)c1 [Example 2-12-92, 2-[1-(4-ethoxy-2,6-difluorobenzyl)-1H-indazol-3-yl]-N-(pyrimidin-4-yl)-6-(tetrahydro-2H-pyran-4-yl)pyrimidin-4-amine]	20	–	2700	–	280
CCOc1cc(F)c(Cn2nc(-c3nc(Nc4ccnc(C)n4)cc(-c4ccn(C)n4)n3)c3ccccc32)c(F)c1 [Example 2-12-93, 2-[1-(4-ethoxy-2,6-difluorobenzyl)-1H-indazol-3-yl]-6-(1-methyl-1H-pyrazol-3-yl)-N-(2-methylpyrimidin-4-yl)pyrimidin-4-amine]	30	–	> 10000	–	> 10000
CCOc1cc(F)c(Cn2nc(-c3nc(Nc4ccncc4OC)cc(-c4ccn(C)n4)n3)c3ccccc32)c(F)c1 [Example 2-12-94, 2-[1-(4-ethoxy-2,6-difluorobenzyl)-1H-indazol-3-yl]-N-(3-methoxypyridin-4-yl)-6-(1-methyl-1H-pyrazol-3-yl)pyrimidin-4-amine]	9.7	–	3900	–	2300
CCOc1cc(F)c(Cn2nc(-c3nc(Nc4ccncn4)cc(-c4nccs4)n3)c3ccccc32)c(F)c1 [Example 2-12-95, 2-[1-(4-ethoxy-2,6-difluorobenzyl)-1H-indazol-3-yl]-N-(pyrimidin-4-yl)-6-(1,3-thiazol-2-yl)pyrimidin-4-amine]	26	–	> 10000	–	9800
CCOc1cc(F)c(Cn2nc(-c3nc4c(c(Nc5ccncc5C(F)(F)F)n3)CCC4)c3ccccc32)c(F)c1 [Example 2-14-3, 2-[1-(4-ethoxy-2,6-difluorobenzyl)-1H-indazol-3-yl]-N-[3-(trifluoromethyl)pyridin-4-yl]-6,7-dihydro-5H-cyclopenta[d]pyrimidin-4-amine]	–	–	3000	5.2	250
CCOc1cc(F)c(Cn2nc(-c3nc4c(c(Nc5ccncc5C(=O)O)n3)CCC4)c3ccccc32)c(F)c1 [Example 2-14-9, 4-({2-[1-(4-ethoxy-2,6-difluorobenzyl)-1H-indazol-3-yl]-6,7-dihydro-5H-cyclopenta[d]pyrimidin-4-yl}amino)pyridine-3-carboxylic acid]	66	–	> 10000	–	> 10000
CCOc1cc(F)c(Cn2nc(-c3nc4c(c(Nc5ccncc5)n3)CN(CC)CC4)c3ccccc32)c(F)c1 [Example 2-15-1, 2-[1-(4-ethoxy-2,6-difluorobenzyl)-1H-indazol-3-yl]-6-ethyl-N-(pyridin-4-yl)-5,6,7,8-tetrahydropyrido[4,3-d]pyrimidin-4-amine]	8.6	–	> 10000	–	69
CCOc1cc(F)c(Cn2nc(-c3nc(CN4CCCCC4)cc(Nc4ccncc4)n3)c3ccccc32)c(F)c1 [Example 2-15-7, 2-[1-(4-ethoxy-2,6-difluorobenzyl)-1H-indazol-3-yl]-6-(piperidin-1-ylmethyl)-N-(pyridin-4-yl)pyrimidin-4-amine]	–	–	3500	7.7	150
COCCOc1cc(F)c(Cn2nc(-c3ncc(C4CCN(CC5CC5)CC4)c(Nc4ccnc(C)n4)n3)c3ccccc32)c(F)c1 [Example 2-20-12, 5-[1-(cyclopropylmethyl)piperidin-4-yl]-2-{1-[2,6-difluoro-4-(2-methoxyethoxy)benzyl]-1H-indazol-3-yl}-N-(2-methylpyrimidin-4-yl)pyrimidin-4-amine]	31	–	1200	–	68
